This note sets out measurements from US20240218022A1, “ANTI-VISTA MACROCYCLIC PEPTIDES AND COMPOSITIONS” (BRISTOL-MYERS SQUIBB COMPANY, priority 2022, published 2024).

Each structure is given as a SMILES string. pIC50: −log10 of the molar value. Starred links: 1 amine or outer side, 2 acyl side, 3 side chain; linkers in the order of their positions; H or OH if unused. Positions of bridges follow the written chain, without caps; N, C: chain ends. Non-standard residues stand in square brackets, D forms with d. Residues, ends and D or L forms follow the SMILES beside them. ξ: configuration not given here. γGlu = O=C(O)[C@H](CCC(=O)[*:2])N[*:1]; NMeThr(3ξ) = CN[C@H](C(=O)O)C(C)O; NMeL = CN[C@@H](CC(C)C)C(=O)O; Ahp(2) = CCCCC[C@H](N)C(=O)O; NMeNle = CCCC[C@H](NC)C(=O)O; Tle = CC(C)(C)[C@H](N)C(=O)O; NMeV = CN[C@H](C(=O)O)C(C)C; NHexGly = CCCCCCNCC(=O)O; Orn = NCCC[C@H](N)C(=O)O; Aun = NCCCCCCCCCCC(=O)O; AEEA = NCCOCCOCC(=O)O

The pIC50 is −log10 of the IC50, conventionally taken in molar units.

The assay has as its target T1, mouse VISTA (mVISTA) (Mus musculus, UniProt Q9D659).
T1 construct: expressed in transfected cells; host or cells: Human embryonic kidney 293T cells
T1 sequence (Q9D659 33-308): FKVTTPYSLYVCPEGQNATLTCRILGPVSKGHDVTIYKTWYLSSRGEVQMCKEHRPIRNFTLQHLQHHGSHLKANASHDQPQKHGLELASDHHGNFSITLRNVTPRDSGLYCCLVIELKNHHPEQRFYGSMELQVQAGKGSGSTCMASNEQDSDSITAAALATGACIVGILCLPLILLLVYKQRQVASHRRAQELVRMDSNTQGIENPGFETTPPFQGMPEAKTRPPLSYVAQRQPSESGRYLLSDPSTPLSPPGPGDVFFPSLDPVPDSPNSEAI
Put plainly: Cell-Based Binding High-Content Assay For mVISTA (HC CBA mVISTA). The conditions noted are these: read-out: HC CBA mVISTA IC50. In a few lines:
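mVISTA-293T, 4,000 cells/well; cpd ± washout step; biotin-peptide 2 nM final, 30 min RT; SA-Alexa 647 30 min; formaldehyde/Hoechst fix; HCS imaging; 4PL IC50.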

For the compound `CCCCCCN1CC(=O)N[C@@H](Cc2ccc(O)cc2)C(=O)N[C@@H](CC(C)C)C(=O)N[C@@H](CC(N)=O)C(=O)N[C@@H](CCCNC(=N)N)C(=O)N(C)[C@@H](CCCC)C(=O)N[C@@H](CCCCC)C(=O)N2CCC[C@H]2C(=O)N[C@@H](C(C)(C)C)C(=O)N[C@@H](CO)C(=O)N[C@H](C(=O)NCCOCCOCC(=O)N[C@@H](CCC(=O)NCCOCCOCC(=O)NCCCCCCCCCCC(=O)O)C(=O)O)CSCC(=O)N[C@@H](Cc2ccccc2)C(=O)N[C@@H](Cc2c[nH]c3ccccc23)C(=O)N[C@@H](CC(=O)O)C1=O` [compound 2268] ({CH2CO}-FWD[NHexGly]YLNR[NMeNle][Ahp(2)]P[Tle]SC[AEEA][γGlu][AEEA][Aun]-OH; thioether N-14), the pIC50 is 7.79. The result for `CCCCCCN1CC(=O)N[C@@H](Cc2ccc(O)cc2)C(=O)N[C@@H](CC(C)C)C(=O)N[C@@H](CC(N)=O)C(=O)N[C@@H](CCCNC(=N)N)C(=O)N(C)[C@@H](CC(C)C)C(=O)N[C@@H](CCCCC)C(=O)N2CCC[C@H]2C(=O)N[C@@H](C(C)(C)C)C(=O)N[C@@H](CC(=O)O)C(=O)N[C@H](C(=O)NCCOCCOCC(=O)N[C@@H](CCC(=O)NCCOCCOCC(=O)NCCCCCCCCCCC(=O)O)C(=O)O)CSCC(=O)N[C@@H](Cc2ccccc2)C(=O)N[C@@H](Cc2c[nH]c3ccccc23)C(=O)N[C@@H](CC(=O)O)C1=O` [compound 2269] ({CH2CO}-FWD[NHexGly]YLNR[NMeL][Ahp(2)]P[Tle]DC[AEEA][γGlu][AEEA][Aun]-OH; thioether N-14) reads 7.55; that for `CCCCCCN1CC(=O)N[C@@H](Cc2ccc(O)cc2)C(=O)N[C@@H](CC(C)C)C(=O)N[C@@H](CC(N)=O)C(=O)N[C@@H](CCCNC(=N)N)C(=O)N(C)[C@@H](CC(C)C)C(=O)N[C@@H](CCCCC)C(=O)N2CCC[C@H]2C(=O)N[C@@H](C(C)(C)C)C(=O)N[C@@H](CO)C(=O)N[C@H](C(=O)NCCOCCOCC(=O)N[C@@H](CCC(=O)NCCOCCOCC(=O)NCCCCCCCCCCC(=O)O)C(=O)O)CSCC(=O)N[C@@H](Cc2ccccc2)C(=O)N[C@@H](Cc2ccc(O)cc2)C(=O)N[C@@H](CC(=O)O)C1=O` [compound 2270] ({CH2CO}-FYD[NHexGly]YLNR[NMeL][Ahp(2)]P[Tle]SC[AEEA][γGlu][AEEA][Aun]-OH; thioether N-14), 7.73; that for `CCCCCCN1CC(=O)N[C@@H](Cc2ccc(O)cc2)C(=O)N[C@@H](CC(C)C)C(=O)N[C@@H](CC(N)=O)C(=O)N[C@@H](CCCNC(=N)N)C(=O)N(C)[C@@H](C(C)C)C(=O)N[C@@H](CCCCC)C(=O)N2CCC[C@H]2C(=O)N[C@@H](C(C)(C)C)C(=O)N[C@@H](CO)C(=O)N[C@H](C(=O)NCCOCCOCC(=O)N[C@@H](CCC(=O)NCCOCCOCC(=O)NCCCCCCCCCCC(=O)O)C(=O)O)CSCC(=O)N[C@@H](Cc2ccccc2)C(=O)N[C@@H](Cc2ccc(O)cc2)C(=O)N[C@@H](CC(=O)O)C1=O` [compound 2271] ({CH2CO}-FYD[NHexGly]YLNR[NMeV][Ahp(2)]P[Tle]SC[AEEA][γGlu][AEEA][Aun]-OH; thioether N-14), 7.60. The result for `CCCCCCN1CC(=O)N[C@@H](Cc2ccc(O)cc2)C(=O)N[C@@H](CC(C)C)C(=O)N[C@@H](CC(N)=O)C(=O)N[C@@H](CCCNC(=N)N)C(=O)N(C)[C@@H](C(C)C)C(=O)N[C@@H](CCCCC)C(=O)N2CCC[C@H]2C(=O)N[C@@H](C(C)(C)C)C(=O)N[C@@H](CO)C(=O)N[C@H](C(=O)NCCOCCOCC(=O)N[C@@H](CCC(=O)NCCOCCOCC(=O)NCCCCCCCCCCC(=O)O)C(=O)O)CSCC(=O)N[C@@H](Cc2ccccc2)C(=O)N[C@@H](Cc2c[nH]c3ccccc23)C(=O)N[C@@H](CC(=O)O)C1=O` [compound 2272] ({CH2CO}-FWD[NHexGly]YLNR[NMeV][Ahp(2)]P[Tle]SC[AEEA][γGlu][AEEA][Aun]-OH; thioether N-14) reads 7.46; that for `CCCCCCN1CC(=O)N[C@@H](Cc2ccc(O)cc2)C(=O)N[C@@H](CC(C)C)C(=O)N[C@@H](CC(N)=O)C(=O)N[C@@H](CCCNC(=N)N)C(=O)N(C)[C@@H](C(C)O)C(=O)N[C@@H](CCCCC)C(=O)N2CCC[C@H]2C(=O)N[C@@H](C(C)(C)C)C(=O)N[C@@H](CC(=O)O)C(=O)N[C@H](C(=O)NCCOCCOCC(=O)N[C@@H](CCC(=O)NCCOCCOCC(=O)NCCCCCCCCCCC(=O)O)C(=O)O)CSCC(=O)N[C@@H](Cc2ccccc2)C(=O)N[C@@H](Cc2c[nH]c3ccccc23)C(=O)N[C@@H](CC(=O)O)C1=O` (stereo partly drawn) [compound 2273] ({CH2CO}-FWD[NHexGly]YLNR[NMeThr(3ξ)][Ahp(2)]P[Tle]DC[AEEA][γGlu][AEEA][Aun]-OH; thioether N-14), 7.47. Next, `CCCCCCN1CC(=O)N[C@@H](Cc2ccc(O)cc2)C(=O)N[C@@H](CC(C)C)C(=O)N[C@@H](CC(N)=O)C(=O)N[C@@H](CCCNC(=N)N)C(=O)N(C)[C@@H](C(C)C)C(=O)N[C@@H](CCCCC)C(=O)N2CCC[C@H]2C(=O)N[C@@H](C(C)(C)C)C(=O)N[C@@H](CC(=O)O)C(=O)N[C@H](C(=O)NCCOCCOCC(=O)N[C@@H](CCC(=O)NCCOCCOCC(=O)NCCCCCCCCCCC(=O)O)C(=O)O)CSCC(=O)N[C@@H](Cc2ccccc2)C(=O)N[C@@H](Cc2ccc(O)cc2)C(=O)N[C@@H](CC(=O)O)C1=O` [compound 2274] ({CH2CO}-FYD[NHexGly]YLNR[NMeV][Ahp(2)]P[Tle]DC[AEEA][γGlu][AEEA][Aun]-OH; thioether N-14): 7.73; `CCCCCCN1CC(=O)N[C@@H](Cc2ccc(O)cc2)C(=O)N[C@@H](CC(C)C)C(=O)N[C@@H](CC(N)=O)C(=O)N[C@@H](CCCNC(=N)N)C(=O)N(C)[C@@H](C(C)O)C(=O)N[C@@H](CCCCC)C(=O)N2CCC[C@H]2C(=O)N[C@@H](C(C)(C)C)C(=O)N[C@@H](CC(=O)O)C(=O)N[C@H](C(=O)NCCOCCOCC(=O)N[C@@H](CCC(=O)NCCOCCOCC(=O)NCCCCCCCCCCC(=O)O)C(=O)O)CSCC(=O)N[C@@H](Cc2ccccc2)C(=O)N[C@@H](Cc2ccc(O)cc2)C(=O)N[C@@H](CC(=O)O)C1=O` (stereo partly drawn) [compound 2275] ({CH2CO}-FYD[NHexGly]YLNR[NMeThr(3ξ)][Ahp(2)]P[Tle]DC[AEEA][γGlu][AEEA][Aun]-OH; thioether N-14): 7.50. As for `CCCCCCN1CC(=O)N[C@@H](Cc2ccc(O)cc2)C(=O)N[C@@H](CC(C)C)C(=O)N[C@@H](CC(N)=O)C(=O)N[C@@H](CCCNC(=N)N)C(=O)N(C)[C@@H](C(C)C)C(=O)N[C@@H](CCCCC)C(=O)N2CCC[C@H]2C(=O)N[C@@H](C(C)(C)C)C(=O)N[C@@H](CC(=O)O)C(=O)N[C@H](C(=O)NCCOCCOCC(=O)N[C@@H](CCC(=O)NCCOCCOCC(=O)NCCCCCCCCCCC(=O)O)C(=O)O)CSCC(=O)N[C@@H](Cc2ccccc2)C(=O)N[C@@H](Cc2c[nH]c3ccccc23)C(=O)N[C@@H](CC(=O)O)C1=O` [compound 2276] ({CH2CO}-FWD[NHexGly]YLNR[NMeV][Ahp(2)]P[Tle]DC[AEEA][γGlu][AEEA][Aun]-OH; thioether N-14), the pIC50 was 7.52. The result for `CCCCCCN1CC(=O)N[C@@H](Cc2ccc(O)cc2)C(=O)N[C@@H](CC(C)C)C(=O)N[C@@H](CC(N)=O)C(=O)N[C@@H](CCCNC(=N)N)C(=O)N(C)[C@@H](CCCC)C(=O)N[C@@H](CCCCC)C(=O)N2CCC[C@H]2C(=O)N[C@@H](C(C)(C)C)C(=O)N[C@@H](C(C)C)C(=O)N[C@H](C(=O)NCCOCCOCC(=O)N[C@@H](CCC(=O)NCCOCCOCC(=O)NCCCCCCCCCCC(=O)O)C(=O)O)CSCC(=O)N[C@@H](Cc2ccccc2)C(=O)N[C@@H](Cc2ccc(O)cc2)C(=O)N[C@@H](CC(=O)O)C1=O` [compound 2277] ({CH2CO}-FYD[NHexGly]YLNR[NMeNle][Ahp(2)]P[Tle]VC[AEEA][γGlu][AEEA][Aun]-OH; thioether N-14) reads 7.67.

With `CCCCCCN1CC(=O)N[C@@H](Cc2ccc(O)cc2)C(=O)N[C@@H](CC(C)C)C(=O)N[C@@H](CC(N)=O)C(=O)N[C@@H](CCCN)C(=O)N(C)[C@@H](CCCC)C(=O)N[C@@H](CCCCC)C(=O)N2CCC[C@H]2C(=O)N[C@@H](C(C)(C)C)C(=O)N[C@@H](CO)C(=O)N[C@H](C(=O)NCCOCCOCC(=O)N[C@@H](CCC(=O)NCCOCCOCC(=O)NCCCCCCCCCCC(=O)O)C(=O)O)CSCC(=O)N[C@@H](Cc2ccccc2)C(=O)N[C@@H](Cc2ccc(O)cc2)C(=O)N[C@@H](CC(=O)O)C1=O` [compound 2278] ({CH2CO}-FYD[NHexGly]YLN[Orn][NMeNle][Ahp(2)]P[Tle]SC[AEEA][γGlu][AEEA][Aun]-OH; thioether N-14), the pIC50 was 7.55. Take `CCCCCCN1CC(=O)N[C@@H](Cc2ccc(O)cc2)C(=O)N[C@@H](CC(C)C)C(=O)N[C@@H](CC(N)=O)C(=O)N[C@@H](CCCN)C(=O)N(C)[C@@H](CCCC)C(=O)N[C@@H](CCCCC)C(=O)N2CCC[C@H]2C(=O)N[C@@H](C(C)(C)C)C(=O)N[C@@H](C(C)C)C(=O)N[C@H](C(=O)NCCOCCOCC(=O)N[C@@H](CCC(=O)NCCOCCOCC(=O)NCCCCCCCCCCC(=O)O)C(=O)O)CSCC(=O)N[C@@H](Cc2ccccc2)C(=O)N[C@@H](Cc2ccc(O)cc2)C(=O)N[C@@H](CC(=O)O)C1=O` [compound 2279] ({CH2CO}-FYD[NHexGly]YLN[Orn][NMeNle][Ahp(2)]P[Tle]VC[AEEA][γGlu][AEEA][Aun]-OH; thioether N-14): the pIC50 was 7.54.
